Data published in patent US20250049717A1, “DRY POWDER FORMULATIONS OF NARROW SPECTRUM KINASE INHIBITORS” (Pulmatrix Operating Company, Inc., priority 2021, published 2025).

Experiment: Excipient compatibility study, stressed storage, impurities by HPLC
Format: physicochemical
Description: Compound A Content/Purity using HPLC. A high performance liquid chromatography (HPLC) method utilizing a reverse phase C18 column coupled to an ultraviolet (UV) detector has been developed for the identification, bulk content, assay, CUPMD and impurities analysis of formulations of Compound A. The reverse phase column is equilibrated to 40° C. and the autosampler is set to 5° C. The mobile phases, 10 mM ammonium acetate with 0.1% TFA (mobile phase A) and acetonitrile (mobile phase B) are used in a gradient elution from a ratio of 70:30 (A:B) to 0:100 (A:B), over the course of a 20 minute run time. Detection is by UV at 260 nm and the injection volume is 30 μL. Compound A content in powders are quantified relative to a standard curve. Formula strength can be determined by measuring the amount of Compound A in the bulk powder with HPLC, then dividing the measured amount by the nominal amount of Compound A in the powder. A formula strength of a dry powder disclosed herein may be between about 90% and about 105%, e.g., about 93%, about 94%, about 95%, about 96%, about 97%, about 98%, about 99%, about 100%, about 101%, or about 102%.
The spray dried Compound A formulations were exposed to stressed storage conditions for up to two weeks to assess the potential for excipient-induced degradation. The powders were added to 4 mL vials and exposed to 60° C./30% RH, 70° C./10% RH and 80° C./50% RH. Testing for impurities occurred at t=0, t=3 days, t=7 days and t=14 days for samples held at 60° C./30% RH and 70° C./10% RH and at t=0, t=3 days and t=7 days for samples held at 80° C./50% RH. Control samples including Formulation VI, comprising 50% micronized Compound A, 45% sodium chloride, and 5% polysorbate 80 as well as as-received micronized Compound A were included in an attempt to decouple particle size effects and/or the degradation potential of polysorbate 80.

## Cc1ccc(-n2nc(C(C)(C)C)cc2NC(=O)Nc2ccc(Oc3ccnc(Nc4ccccc4)n3)c3ccccc23)cc1 [Compound A, 1-(3-tert-butyl-1-p-tolyl-1H-pyrazol-5-yl)-3-(4-(2-(phenylamino)pyrimidin-4-yloxy)naphthalen-1-yl)urea]
60 C./30% RH, 3 days
  Total Impurities: 0.28 % w/w
  Total Known Impurities: 0.20 % w/w
  Total Unknown Impurities: 0.08 % w/w
60 C./30% RH, 7 days
  Total Impurities: 0.26 % w/w
  Total Known Impurities: 0.17 % w/w
  Total Unknown Impurities: 0.09 % w/w
60 C./30% RH, 14 days
  Total Impurities: 0.21 % w/w
  Total Known Impurities: 0.14 % w/w
  Total Unknown Impurities: 0.07 % w/w
70 C./10% RH, 3 days
  Total Impurities: 0.29 % w/w
  Total Known Impurities: 0.19 % w/w
  Total Unknown Impurities: 0.11 % w/w
70 C./10% RH, 7 days
  Total Impurities: 0.31 % w/w
  Total Known Impurities: 0.17 % w/w
  Total Unknown Impurities: 0.14 % w/w
70 C./10% RH, 14 days
  Total Impurities: 0.20 % w/w
  Total Known Impurities: 0.13 % w/w
  Total Unknown Impurities: 0.08 % w/w
80 C./50% RH, 3 days
  Total Impurities: 0.24 % w/w
  Total Known Impurities: 0.16 % w/w
  Total Unknown Impurities: 0.09 % w/w
80 C./50% RH, 7 days
  Total Impurities: 0.32 % w/w
  Total Known Impurities: 0.14 % w/w
  Total Unknown Impurities: 0.18 % w/w
Time point 0 days
  Total Impurities: 0.29 % w/w
  Total Known Impurities: 0.22 % w/w
  Total Unknown Impurities: 0.07 % w/w
